Test results published in US8299124B2, “Aqueous intraocular penetration-promoting eye drop” (Senju Pharmaceutical Co., Ltd., priority 2004, dated 2012).

Assays:
[1] = tested on: intraocular inflammation after anterior chamber puncture; test: Medicinal efficacy test in a model rabbit of anterior chamber puncture; format: in vivo, Male Dutch rabbits; settings: after anterior chamber puncture in rabbits
Description: The concentration of said medicament in the anterior chamber can be measured by the HPLC method for the anterior aqueous humor collected through anterior chamber puncture, as shown in Experimental Example 1 (Penetration Test of a Medicament in the Aqueous Humor) described below. Male Dutch rabbits (Biotech Co., Ltd) with a body weight of about 2 kg was bred and acclimatized under the condition that the temperature was 23±2° C. and the humidity was 55±10%. On the day of the test, the flare value of anterior chamber in the rabbits was determined by a laser flare cell meter (FC-1000, Kowa Company, Ltd.). […] The eye drops of Formulations 4 to 6 in Table 4 were prepared and used. At 30 minutes before the puncture of the anterior chamber, 1,000 U/kg of heparin (Heparin sodium injection, Ajinomoto Co., Inc.) was administered into the rabbit's ear vein. […] The flare value (photon count/msec) in the anterior chamber was determined 30 minutes after the puncture of anterior chamber using a laser flare cell meter (FC-1000, Kowa Company, Ltd.). […] An inhibition rate of inflammation after the puncture of anterior chamber was calculated according to the following equation. […]

[2] = pH 7.8

Structure (SMILES)	concentration in the anterior aqueous humor at which the intraocular inflammation can be inhibited by at least not less than about 25% (therapeutically effective concentration) [1]	Octanol-water partition coefficient of 2-amino-3-(4-bromobenzoyl)phenylacetic acid [2]
Nc1c(CC(=O)O)cccc1C(=O)c1ccc(Br)cc1 [2-Amino-3-(4-bromobenzoyl)phenylacetic acid]	not less than 1.5 ng/mL	–
Nc1c(CC(=O)[O-])cccc1C(=O)c1ccc(Br)cc1.Nc1c(CC(=O)[O-])cccc1C(=O)c1ccc(Br)cc1.O.O.O.[Na+].[Na+] [Control, Sodium 2-amino-3-(4-bromobenzoyl)phenylacetate 3/2 hydrate, reference compound]	–	0.60
